Laboratory results from ChEMBL document CHEMBL4382266, “Melonoside B and Melonosins A and B, Lipids Containing Multifunctionalized ω-Hydroxy Fatty Acid Amides from the Far Eastern Marine Sponge Melonanchora kobjakovae” (J Nat Prod, 2018).
pIC50: −log10 of the molar value. The source made the active and inactive calls. The rule behind the calls is not given here.

How the values were obtained:
Format in all cases: cell-based
[1] = (§1) Inhibition of NFkB (unknown origin) expressed in mouse JB6 Cl41 cells after 24 hrs by luciferase reporter gene assay; conditions: Homo sapiens, JB6 Cl41, 24 h
[2] = biological target: Cellular tumor antigen p53 (Homo sapiens) (UniProt P04637); experiment: Inhibition of p53 (unknown origin) expressed in mouse JB6 Cl41 cells after 24 hrs by luciferase reporter gene assay
[3] = Cytotoxicity against mouse JB6 Cl41 cells after 24 hrs assessed as reduction in cell viability at 6 to 12 uM by MTS assay
[4] = biological target: Transcription factor Jun (Homo sapiens) (UniProt P05412); experiment: Inhibition of AP-1 (unknown origin) expressed in mouse JB6 Cl41 cells at 25 uM after 24 hrs by luciferase reporter gene assay relative to control
[5] = Cytotoxicity against mouse JB6 Cl41 cells after 24 hrs assessed as reduction in cell viability at 25 to 37 uM by MTS assay
[6] = species: Homo sapiens; experiment: Inhibition of NFkB (unknown origin) expressed in mouse JB6 Cl41 cells at 25 uM after 24 hrs by luciferase reporter gene assay relative to control
[7] = species: Homo sapiens; experiment: as §1
[8] = biological target: Transcription factor Jun (Homo sapiens) (UniProt P05412); experiment: Inhibition of AP-1 (unknown origin) expressed in mouse JB6 Cl41 cells after 24 hrs by luciferase reporter gene assay

Transcription factor Jun (Homo sapiens), sequence (P05412 whole entry): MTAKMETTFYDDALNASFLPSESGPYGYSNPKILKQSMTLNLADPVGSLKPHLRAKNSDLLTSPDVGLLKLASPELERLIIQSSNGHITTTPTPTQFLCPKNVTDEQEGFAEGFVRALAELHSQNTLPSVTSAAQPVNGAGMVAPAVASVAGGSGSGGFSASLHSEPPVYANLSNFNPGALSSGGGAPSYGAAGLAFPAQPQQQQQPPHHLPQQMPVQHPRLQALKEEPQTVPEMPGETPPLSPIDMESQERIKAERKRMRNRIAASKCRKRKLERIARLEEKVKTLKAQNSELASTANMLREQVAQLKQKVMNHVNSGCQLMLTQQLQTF
Cellular tumor antigen p53 (Homo sapiens), sequence (P04637 whole entry, looked up): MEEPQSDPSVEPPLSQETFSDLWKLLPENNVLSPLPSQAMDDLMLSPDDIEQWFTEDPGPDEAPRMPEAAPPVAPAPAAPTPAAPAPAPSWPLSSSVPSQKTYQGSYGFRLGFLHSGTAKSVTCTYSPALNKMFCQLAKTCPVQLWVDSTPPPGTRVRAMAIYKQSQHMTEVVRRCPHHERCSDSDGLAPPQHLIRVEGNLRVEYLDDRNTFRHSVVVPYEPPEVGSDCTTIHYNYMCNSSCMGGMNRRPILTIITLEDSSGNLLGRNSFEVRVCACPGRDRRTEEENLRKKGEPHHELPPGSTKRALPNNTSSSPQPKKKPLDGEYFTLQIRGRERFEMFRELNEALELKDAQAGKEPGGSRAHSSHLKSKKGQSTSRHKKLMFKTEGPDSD

Compound	pIC50 [1]	inhibition [2]	Activity [3]	inhibition [4]	Activity [5]	inhibition [6]	inhibition [7]	inhibition [8]
CO[C@@H](CC/C=C\CCCCC(=O)CCCCCCC(=O)CC/C=C\CCCCCCO)C(=O)NCCc1ccc(O)cc1	5.14	inactive	Non-Toxic					
CO[C@@H](CC/C=C\CCCCC(=O)CCCCC(=O)CCCCCCCCCCO)C(=O)NCCc1ccc(O)cc1		inactive		87%	Non-Toxic	67%		
CO[C@@H](CC/C=C\CCCCC(=O)CCCCCCC(=O)CC/C=C\CCCCCCO[C@@H]1O[C@H](C(=O)O)[C@@H](O)[C@H](O)[C@H]1O)C(=O)NCCc1ccc(O)cc1		inactive					inactive	inactive
CO[C@@H](CC/C=C\CCCCC(=O)CCCCC(=O)CCCCCCCCCCO[C@@H]1O[C@H](C(=O)O)[C@@H](O)[C@H](O)[C@H]1O)C(=O)NCCc1ccc(O)cc1		inactive					inactive	inactive
